# Measured values from patent publication US12447159B2 (AELIS FARMA, priority 2018, dated 2025).
# Where two headings read alike, the source gives them in different places.
# What was measured:
# [1] = molecular target: OAT3 (Homo sapiens, UniProt Q8TCC7); experiment: Cellular transporter inhibition, CHO cells (fluorometry); settings: 10 μM
# Procedure: (§2) Chinese Hamster Ovary (CHO) were used for all transporters except for P-gp that was studied in Madin-Darby Canine Kidney (MDR1-MDCKII) cells. The inhibition of the activity of each transporter is evaluated by measuring changes in the transport of their specific substrates by fluorometry.
# [2] = system: male Wistar rats; experiment: Irwin test and body temperature in rats (GLP); type: in vivo; settings: 2, 9 and 36 mg/kg, single oral
# Procedure: The study involved 4 groups of 6 male Wistar rats weighing between 154.0 and 185.9 g.
# On study day, animals were firstly scored by the Irwin standardized observation battery and the body temperature was measured. […] Then the Irwin scores as well as measurement of body temperature were performed again at 1, 3, 6, 8 and 24 hours after the administration.
# [3] = Metabolic stability in dog liver microsomes (DLM); type: in vitro ADME; settings: dog LM, NADPH
# Procedure: The investigation was performed on liver microsomes (LM) coming from mouse (MLM), rat (RLM), dog (DLM) and human (HLM).
# 3pMBP was incubated with liver microsome pools supplemented with NADPH as cofactor. Samples were taken at 5 different times (0, 10, 20, 30 and 60 minutes) and samples were monitored for parent compound disappearance in MRM mode using LC/MS-MS. The Intrinsic Clearance and half-life have been determined. Verapamil was used as reference compound.
# [4] = molecular target: T1, human CB1 (hCB1) receptor (Homo sapiens, UniProt P21554); experiment: THC-induced increase in MAPK phosphorylation, HEK-293 cells transiently transfected with hCB1 (western blot, P-MAPK/MAPK); type: cell-based; settings: THC 10 μM, 5 min; HEK-293 transiently expressing the hCB1
# T1 construct: expressed in transfected cells; host or cells: HEK-293
# T1 sequence (P21554 whole entry): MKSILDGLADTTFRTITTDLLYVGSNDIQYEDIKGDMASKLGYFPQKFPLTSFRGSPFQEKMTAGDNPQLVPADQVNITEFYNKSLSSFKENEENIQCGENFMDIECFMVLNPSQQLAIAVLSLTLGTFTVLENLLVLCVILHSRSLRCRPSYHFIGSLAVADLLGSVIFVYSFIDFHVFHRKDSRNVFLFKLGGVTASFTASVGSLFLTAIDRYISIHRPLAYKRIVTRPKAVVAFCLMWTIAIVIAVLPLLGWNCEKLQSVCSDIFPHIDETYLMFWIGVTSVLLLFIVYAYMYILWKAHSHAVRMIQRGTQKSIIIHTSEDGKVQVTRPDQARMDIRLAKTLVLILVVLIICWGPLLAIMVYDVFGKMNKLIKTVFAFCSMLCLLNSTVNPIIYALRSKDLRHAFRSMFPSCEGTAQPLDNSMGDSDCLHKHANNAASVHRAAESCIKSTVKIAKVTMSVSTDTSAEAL
# Procedure: The difference in the concentrations of THC used in the two experiments is related to the different efficiency of transfection of hCB1 cDNA plasmid, which is stable in Experiment 1 and transient in Experiment 2.
# MAPK phosphorylation (P-Erk1/2MAPK proteins) was measured by western blot. In experiment 1 the mitochondrial marker CoxIV and in experiment 2 the un-phosphorylated MAPK proteins were used as loading controls. The P-MAPK/CoxIV and P-MAPK/MAPK ratios were calculated and the data expressed as % of vehicle-treated cells.
# [5] = molecular target: CYP 2B6 (Homo sapiens, UniProt P20813); experiment: CYP inhibition in human liver microsomes; settings: 10 μM
# CYP 2B6, sequence (P20813 whole entry): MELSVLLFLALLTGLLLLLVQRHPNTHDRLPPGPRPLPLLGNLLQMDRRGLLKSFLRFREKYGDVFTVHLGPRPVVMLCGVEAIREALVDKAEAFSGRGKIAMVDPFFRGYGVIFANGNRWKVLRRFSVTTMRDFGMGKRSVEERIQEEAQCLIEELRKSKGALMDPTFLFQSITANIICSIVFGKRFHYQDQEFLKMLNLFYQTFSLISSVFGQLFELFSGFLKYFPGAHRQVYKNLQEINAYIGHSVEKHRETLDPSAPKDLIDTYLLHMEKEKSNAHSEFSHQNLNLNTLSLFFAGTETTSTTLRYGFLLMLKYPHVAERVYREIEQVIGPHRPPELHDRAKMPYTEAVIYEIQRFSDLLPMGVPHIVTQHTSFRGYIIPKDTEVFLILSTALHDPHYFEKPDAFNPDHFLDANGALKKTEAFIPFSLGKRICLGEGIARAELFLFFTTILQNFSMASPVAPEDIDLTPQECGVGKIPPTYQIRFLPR
# Excerpt: (§3) Reaction was initiated by adding NADPH-generating compounds and after stopping of reaction and samples treatment; HPLC-UV/VIS and HPLC-MS/MS detection were used for detection of peak areas corresponding to the metabolite of each substrate.
# [6] = system: testosterone, DHEA and allopregnanolone; experiment: Conversion in downstream steroids, dogs (GC/MS-MS); type: in vivo; settings: male and female dogs; acute or repeated (28 days) 2, 9 and 36 mg/kg
# Procedure: (§1) In all these studies plasma concentrations of steroids were measured by gas chromatography-tandem mass spectrometry (GC/MS-MS).
# [7] = system: THC-induced catalepsy; experiment: THC-induced catalepsy (catalepsy bar test); type: in vivo; settings: per os 3 h before THC 10 mg/kg; mice
# Procedure: Measuring of the catalepsy induced by THC was started 30 min after THC injection.
# Catalepsy was measured by the catalepsy bar test. The forepaws of mice were placed on a bar fixed horizontally at 3.5 cm from the bench surface. The latency for moving from the bar was recorded with a cut-off time fixed at 420 s (7 min). Each mouse was submitted to a maximum of four consecutive trials. The maximum latency shown at one trial was selected as the measure of catalepsy.
# [8] = Distribution in the brain of mice; type: in vivo
# [9] = molecular target: CYP 2C9 (Homo sapiens, UniProt P11712); experiment: CYP inhibition in human liver microsomes; settings: 10 μM
# CYP 2C9, sequence (P11712 whole entry): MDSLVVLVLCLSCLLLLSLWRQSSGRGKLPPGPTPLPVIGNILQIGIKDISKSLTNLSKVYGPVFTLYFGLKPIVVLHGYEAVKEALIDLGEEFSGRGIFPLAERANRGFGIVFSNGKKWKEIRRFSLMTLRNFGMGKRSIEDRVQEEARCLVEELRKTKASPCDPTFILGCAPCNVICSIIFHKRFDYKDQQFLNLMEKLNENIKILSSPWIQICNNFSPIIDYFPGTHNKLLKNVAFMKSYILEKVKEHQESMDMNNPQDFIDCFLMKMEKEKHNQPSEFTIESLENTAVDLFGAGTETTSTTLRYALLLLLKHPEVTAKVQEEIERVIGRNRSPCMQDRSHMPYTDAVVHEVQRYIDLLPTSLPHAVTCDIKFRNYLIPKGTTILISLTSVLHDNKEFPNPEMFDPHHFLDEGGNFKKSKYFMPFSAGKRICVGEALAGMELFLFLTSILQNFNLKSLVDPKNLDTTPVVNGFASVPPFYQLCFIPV
# Excerpt: as §3
# [10] = molecular target: T2, hERG current (Homo sapiens, UniProt Q12809); experiment: hERG tail current in stably transfected HEK-293 cells (GLP); type: cell-based; settings: 100 nM, 1 μM and 10 μM
# T2 construct: expressed in transfected cells; host or cells: HEK-293
# T2 sequence (Q12809 whole entry): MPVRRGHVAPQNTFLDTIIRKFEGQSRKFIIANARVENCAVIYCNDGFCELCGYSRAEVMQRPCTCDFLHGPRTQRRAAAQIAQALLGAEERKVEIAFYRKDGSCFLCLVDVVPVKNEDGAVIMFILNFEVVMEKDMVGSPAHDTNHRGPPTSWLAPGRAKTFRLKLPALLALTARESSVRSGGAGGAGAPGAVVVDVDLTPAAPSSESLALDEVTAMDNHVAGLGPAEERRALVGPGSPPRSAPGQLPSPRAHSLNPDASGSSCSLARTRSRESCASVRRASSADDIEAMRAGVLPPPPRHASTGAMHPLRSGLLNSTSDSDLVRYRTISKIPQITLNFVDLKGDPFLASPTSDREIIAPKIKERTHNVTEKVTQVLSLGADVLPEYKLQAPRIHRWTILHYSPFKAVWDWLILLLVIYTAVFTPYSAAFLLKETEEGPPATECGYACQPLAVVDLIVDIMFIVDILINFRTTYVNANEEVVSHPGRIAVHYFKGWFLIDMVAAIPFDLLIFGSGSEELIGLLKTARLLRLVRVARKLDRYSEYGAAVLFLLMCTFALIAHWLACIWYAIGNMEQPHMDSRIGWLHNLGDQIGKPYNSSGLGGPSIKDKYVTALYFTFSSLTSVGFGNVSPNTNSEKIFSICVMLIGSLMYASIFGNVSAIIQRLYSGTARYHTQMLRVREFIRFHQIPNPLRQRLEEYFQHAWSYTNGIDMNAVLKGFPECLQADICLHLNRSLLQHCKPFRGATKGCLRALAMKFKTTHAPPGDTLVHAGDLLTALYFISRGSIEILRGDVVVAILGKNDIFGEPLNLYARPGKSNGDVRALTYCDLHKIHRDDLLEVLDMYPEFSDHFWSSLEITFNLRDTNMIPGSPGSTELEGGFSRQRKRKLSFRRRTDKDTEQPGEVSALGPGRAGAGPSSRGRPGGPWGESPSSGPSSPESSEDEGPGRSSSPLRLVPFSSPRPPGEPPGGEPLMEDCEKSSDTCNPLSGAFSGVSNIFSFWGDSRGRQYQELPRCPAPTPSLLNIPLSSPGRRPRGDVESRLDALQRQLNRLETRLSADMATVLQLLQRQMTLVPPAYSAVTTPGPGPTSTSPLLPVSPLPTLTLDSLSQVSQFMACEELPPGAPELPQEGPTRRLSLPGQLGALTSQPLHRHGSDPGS
# Procedure: E-4031 was used as positive control and was tested in one separate HEK-293 cell to support the validity of the method used.
# Cells were clamped to −80 mV, depolarised to 0 mV for 5 sec allowing activation of hERG current and repolarised to −50 mV for 5 sec allowing hERG tail current to deactivate. This experimental procedure was repeated at a frequency of 0.06 Hz. Currents were filtered at 1 kHz and acquired at the frequency of 2 kHz. Amplitude of hERG tail current was measured during the repolarizing pulse from 0 to −50 mV. […] Currents were measured before and after exposure to the test item.
# [11] = molecular target: UGT1A1 (Homo sapiens, UniProt P22309); experiment: UGT1A1 inhibition (recombinant, scopoletin substrate) assay; type: in vitro ADME; settings: 10 μM
# UGT1A1, sequence (P22309 26-533): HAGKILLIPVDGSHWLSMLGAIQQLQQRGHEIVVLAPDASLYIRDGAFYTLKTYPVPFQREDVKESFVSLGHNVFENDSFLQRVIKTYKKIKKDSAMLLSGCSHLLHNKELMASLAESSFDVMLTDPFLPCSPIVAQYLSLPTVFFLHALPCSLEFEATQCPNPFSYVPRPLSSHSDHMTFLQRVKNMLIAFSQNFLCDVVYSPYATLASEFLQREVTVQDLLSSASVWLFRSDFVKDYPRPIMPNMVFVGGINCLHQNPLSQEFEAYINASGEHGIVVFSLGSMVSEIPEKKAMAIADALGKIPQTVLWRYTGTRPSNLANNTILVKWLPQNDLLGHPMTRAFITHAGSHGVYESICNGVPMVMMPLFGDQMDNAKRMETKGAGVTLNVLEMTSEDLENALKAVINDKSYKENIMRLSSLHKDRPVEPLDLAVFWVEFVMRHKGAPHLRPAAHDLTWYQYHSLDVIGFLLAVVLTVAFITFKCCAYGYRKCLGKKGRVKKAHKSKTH
# Procedure: The reaction is initiated by adding the co-factor uridine-diphosphoglucuronic acid (UDPGA), the incubation is continued for 60 minutes and relative fluorescence intensity (RFI) is measured on a fluorescent plate reader.
# [12] = molecular target: P-gp (Homo sapiens, UniProt P08183); experiment: Cellular transporter inhibition, MDR1-MDCKII cells (fluorometry); settings: 10 μM
# P-gp, sequence (P08183 whole entry): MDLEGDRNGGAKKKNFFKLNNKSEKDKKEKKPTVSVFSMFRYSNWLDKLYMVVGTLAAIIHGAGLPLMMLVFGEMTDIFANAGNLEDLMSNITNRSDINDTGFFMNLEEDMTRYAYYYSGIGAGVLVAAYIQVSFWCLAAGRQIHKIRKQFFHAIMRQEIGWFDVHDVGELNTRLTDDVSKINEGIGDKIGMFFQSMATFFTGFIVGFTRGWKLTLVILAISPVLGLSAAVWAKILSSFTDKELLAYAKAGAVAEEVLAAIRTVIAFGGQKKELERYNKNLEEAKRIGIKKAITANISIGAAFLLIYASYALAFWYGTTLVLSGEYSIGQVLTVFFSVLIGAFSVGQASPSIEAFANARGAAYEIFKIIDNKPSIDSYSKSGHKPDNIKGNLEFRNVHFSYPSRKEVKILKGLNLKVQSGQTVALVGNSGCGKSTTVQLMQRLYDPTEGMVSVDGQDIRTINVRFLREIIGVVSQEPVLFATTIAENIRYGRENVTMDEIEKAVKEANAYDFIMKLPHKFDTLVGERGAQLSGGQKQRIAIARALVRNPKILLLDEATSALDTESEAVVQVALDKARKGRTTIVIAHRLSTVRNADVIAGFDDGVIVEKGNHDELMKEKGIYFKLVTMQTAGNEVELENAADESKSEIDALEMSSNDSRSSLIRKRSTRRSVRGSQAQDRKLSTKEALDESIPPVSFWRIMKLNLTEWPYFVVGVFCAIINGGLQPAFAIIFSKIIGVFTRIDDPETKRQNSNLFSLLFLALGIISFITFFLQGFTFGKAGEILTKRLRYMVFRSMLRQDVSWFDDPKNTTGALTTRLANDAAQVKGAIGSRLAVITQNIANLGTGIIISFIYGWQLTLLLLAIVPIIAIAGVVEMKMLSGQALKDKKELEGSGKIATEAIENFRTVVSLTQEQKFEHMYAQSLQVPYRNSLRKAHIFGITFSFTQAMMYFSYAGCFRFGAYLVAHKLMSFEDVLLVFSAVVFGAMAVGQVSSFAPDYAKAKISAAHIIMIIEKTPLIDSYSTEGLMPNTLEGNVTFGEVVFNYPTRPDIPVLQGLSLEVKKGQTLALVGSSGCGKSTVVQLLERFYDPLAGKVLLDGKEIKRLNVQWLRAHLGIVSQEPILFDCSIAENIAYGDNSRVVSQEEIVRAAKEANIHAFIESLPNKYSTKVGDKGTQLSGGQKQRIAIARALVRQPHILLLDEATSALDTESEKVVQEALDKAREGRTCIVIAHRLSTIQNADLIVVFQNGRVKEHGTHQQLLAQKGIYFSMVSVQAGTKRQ
# Procedure: as §2
# [13] = system: testosterone, DHEA and allopregnanolone; experiment: Conversion in downstream steroids, rats (GC/MS-MS); type: in vivo; settings: male and female rats; acute or repeated (28 days) 2, 9 and 36 mg/kg
# Procedure: as §1
# [14] = system: conscious rats; experiment: Respiration in the unrestrained conscious rat (whole body plethysmography, GLP); settings: 2, 9 and 36 mg/kg, single oral
# Procedure: The day prior to the study, animals were only allowed to drink water. On the study day, animals were placed in the plethysmograph and measurements started immediately afterwards. The whole body plethysmography method measure in a closed chamber variations in air flow due to thoracic cage movements during respiration and enables the measurement of respiratory parameters in the conscious animal, totally free to move about. […] Respiration was recorded for a total period of 6 hours following the dosing. Respiratory parameters were determined from analysis of respiratory cycles.
# [15] = system: diet-induced obese (DIO) mouse model; experiment: Repeated treatment: food intake and body weight in diet-induced obese (DIO) mice; type: in vivo; settings: vs vehicle; Rimo 10 mg/kg ip; 3pMBP 0.005-15 mg/kg per os
# [16] = molecular target: OAT1 (Homo sapiens, UniProt Q4U2R8); experiment: Cellular transporter inhibition, CHO cells (fluorometry); settings: 10 μM
# OAT1, sequence (Q4U2R8 whole entry): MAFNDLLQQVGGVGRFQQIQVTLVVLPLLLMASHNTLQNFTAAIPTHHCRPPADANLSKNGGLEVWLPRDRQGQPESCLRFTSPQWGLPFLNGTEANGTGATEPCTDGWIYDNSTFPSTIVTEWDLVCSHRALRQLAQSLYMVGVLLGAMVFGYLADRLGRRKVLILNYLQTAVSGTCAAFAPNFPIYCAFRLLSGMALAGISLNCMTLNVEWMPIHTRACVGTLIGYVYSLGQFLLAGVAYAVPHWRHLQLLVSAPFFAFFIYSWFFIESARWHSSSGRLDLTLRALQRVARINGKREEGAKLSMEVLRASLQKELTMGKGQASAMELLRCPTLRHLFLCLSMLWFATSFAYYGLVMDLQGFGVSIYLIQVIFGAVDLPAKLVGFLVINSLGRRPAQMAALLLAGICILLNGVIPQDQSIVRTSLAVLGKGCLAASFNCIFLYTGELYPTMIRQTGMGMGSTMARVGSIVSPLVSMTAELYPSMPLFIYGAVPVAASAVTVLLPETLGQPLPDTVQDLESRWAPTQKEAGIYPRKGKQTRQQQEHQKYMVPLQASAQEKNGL
# Procedure: as §2
# [17] = Distribution in the brain of rats; type: in vivo; settings: rat, oral, 1.6 mg/kg, per os
# Procedure: Distribution of 3pMBP in the brain was studied in mice and rats. In dogs, 3pMBP was also administered intravenously after solubilisation in cyclodextrine.
# [18] = Pharmacokinetics in plasma of dogs (LC/MS-MS); type: in vivo; settings: for T1/2: manual linear regression on the last three points
# [19] = system: human chromosome aberration; experiment: Human Chromosome Aberration test +/- metabolic activation (GLP); type: cell-based; settings: highest concentration tested between 74 and 100 μM
# Excerpt: […].
structure (smiles),measurement,setting,value
"COc1ccc(CO[C@H]2CC[C@@]3(C)C(=CC[C@H]4[C@@H]5CC[C@H](C(C)=O)[C@@]5(C)CC[C@@H]43)C2)cc1 [3pMBP, 3β-(4-methoxybenzyloxy)pregn-5-en-20-one]",Activity of OAT3,[1],did not modify the activity
same,Behavior (Irwin test) and body temperature,[2],did not modify
same,half-life,[3],0.89 h
same,microsomal CLint,[3]; read-out: intrinsic clearance,26 µL/min/mg
same,% inhibition,[4],100%
same,ID100,[4],100 nM
same,Inhibition of CYP 2B6 activity,[5],no significant inhibition
same,"Plasma concentrations of testosterone, DHEA and allopregnanolone",[6],no effect
same,% inhibition,[7],50%
same,ID50,[7],0.005 mg/kg
same,ID100,[7],0.05 mg/kg
same,AUC in the brain vs plasma,"[8]; conclusion sentence, species and dose not stated",four times higher AUC in the brain than in the plasma
same,tmax in the brain,"[8]; mice, per os",7 h
same,Inhibition of CYP 2C9 activity,[9],no significant inhibition
same,hERG tail currents,[10],did not modify hERG (human ether-ago-go-related gene) tail currents
same,Activity of UGT1A1,[11],did not modify the activity
same,Activity of P-gp,[12],did not modify the activity
same,"Plasma concentrations of testosterone, DHEA and allopregnanolone",[13],no effect
same,Respiration,[14],did not modify
same,Body weight in obese mice,[15],"but not 3pMBP (0.005, 0.015, 0.05, 5 and 15 mg/kg; per os), decreases body weight"
same,Activity of OAT1,[16],did not modify the activity
same,Tmax,[17],7 h
same,bioavailability,[18],68%
same,bioavailability,"[18]; both sexes, dog, plasma, oral, 0.7 mg/kg, read-out: bioavailability",~68%
same,Tmax,"[18]; both sexes, dog, po, per os, 0.7 mg/kg, plasma, read-out: Tmax",~3 h
same,AUClast,"[18]; iv, 0.7 mg/kg, plasma",2192 ng·h/mL
same,Cmax,"[18]; iv, 0.7 mg/kg, plasma",505 ng/mL
same,Tmax,"[18]; iv, 0.7 mg/kg, plasma",0.125 h
same,T1/2,"[18]; iv, 0.7 mg/kg, plasma",35.9 h
same,AUClast,"[18]; per os, 0.7 mg/kg, plasma",1452.5 ng·h/mL
same,Cmax,"[18]; per os, 0.7 mg/kg, plasma",137.7 ng/mL
same,Tmax,"[18]; per os, 0.7 mg/kg, plasma",2.67 h
same,T1/2,"[18]; per os, 0.7 mg/kg, plasma",28.0 h
same,Genotoxicity,[19],"did not show any cytotoxicity, genotoxicity and mutagenesis"
